In patent US11623919B2, “Heterocyclic P2X7 antagonists” (AXXAM S.P.A., priority 2017, dated 2023):

How the values were obtained:
Test in all cases: Screen Quest Fluo-8 No Wash Calcium Assay (Bz-ATP evoked Ca2+ influx, FLIPR)
Format in all cases: cell-based
P2X7 receptor [1] = target: T1, P2X7 receptor (Mus musculus, UniProt Q9Z1M0); conditions: mP2X7; HEK-293 cells stably transfected with P2X7 receptor, Bz-ATP at EC80, Fluo-8 NW; potency ranges A-D
T1 construct: mP2X7 (IC50; nM); other: mP2X7; HEK-293 cells stably transfected with P2X7 receptor, Bz-ATP at EC80, Fluo-8 NW; potency
T1 sequence (Q9Z1M0 1-595): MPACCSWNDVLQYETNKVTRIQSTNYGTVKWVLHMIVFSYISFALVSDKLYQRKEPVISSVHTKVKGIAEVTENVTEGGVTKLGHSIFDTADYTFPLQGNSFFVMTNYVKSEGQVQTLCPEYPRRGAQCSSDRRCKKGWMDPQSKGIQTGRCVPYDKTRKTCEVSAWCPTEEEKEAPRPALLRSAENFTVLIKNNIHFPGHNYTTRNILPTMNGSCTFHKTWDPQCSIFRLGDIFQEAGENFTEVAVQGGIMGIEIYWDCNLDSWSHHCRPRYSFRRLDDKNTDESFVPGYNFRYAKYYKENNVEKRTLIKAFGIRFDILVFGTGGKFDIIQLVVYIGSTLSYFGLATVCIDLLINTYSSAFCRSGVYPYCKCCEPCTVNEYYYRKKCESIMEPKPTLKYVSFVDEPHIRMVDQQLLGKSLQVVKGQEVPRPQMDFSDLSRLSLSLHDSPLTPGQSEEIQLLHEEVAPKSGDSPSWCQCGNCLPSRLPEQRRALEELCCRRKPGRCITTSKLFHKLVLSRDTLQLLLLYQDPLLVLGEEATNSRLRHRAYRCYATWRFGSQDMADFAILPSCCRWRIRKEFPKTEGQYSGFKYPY
Method in brief: (§1)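 Compounds were added to Fluo-8-loaded P2X7-transfected HEK-293 cells 5 min before an EC80 Bz-ATP challenge, and Ca2+ influx was then recorded for 3 min. Buffer held 0.3 mM Ca2+ and no Mg2+. Inhibition was normalised to A438079, giving IC50 values.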

P2X7 receptor [2] = target: T2, P2X7 receptor (Rattus norvegicus, UniProt Q64663); conditions: rP2X7; HEK-293 cells stably transfected with P2X7 receptor, Bz-ATP at EC80, Fluo-8 NW; potency ranges A-D
T2 construct: rP2X7 (IC50; nM); other: rP2X7; HEK-293 cells stably transfected with P2X7 receptor, Bz-ATP at EC80, Fluo-8 NW; potency
T2 sequence (Q64663 1-595): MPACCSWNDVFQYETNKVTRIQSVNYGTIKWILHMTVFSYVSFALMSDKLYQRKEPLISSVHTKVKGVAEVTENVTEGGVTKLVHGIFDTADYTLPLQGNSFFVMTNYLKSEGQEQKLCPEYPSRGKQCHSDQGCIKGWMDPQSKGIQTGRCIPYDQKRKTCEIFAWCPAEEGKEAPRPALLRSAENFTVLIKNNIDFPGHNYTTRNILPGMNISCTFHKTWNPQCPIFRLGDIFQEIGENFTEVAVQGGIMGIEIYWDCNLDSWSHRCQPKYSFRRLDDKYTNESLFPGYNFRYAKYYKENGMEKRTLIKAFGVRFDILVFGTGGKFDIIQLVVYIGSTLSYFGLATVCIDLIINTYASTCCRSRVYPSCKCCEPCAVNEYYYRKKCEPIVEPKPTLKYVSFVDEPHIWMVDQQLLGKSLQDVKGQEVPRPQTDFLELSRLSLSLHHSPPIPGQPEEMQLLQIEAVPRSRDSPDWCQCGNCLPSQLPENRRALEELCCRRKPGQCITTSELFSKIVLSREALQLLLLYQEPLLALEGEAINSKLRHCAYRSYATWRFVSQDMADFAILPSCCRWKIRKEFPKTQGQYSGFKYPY
Method in brief: as §1

P2X7 receptor [3] = target: T3, P2X7 receptor (Homo sapiens, UniProt Q99572); set-up: hP2X7 (IC50; nM); other: hP2X7; HEK-293 cells stably transfected with P2X7 receptor, Bz-ATP at EC80, Fluo-8 NW; potency; conditions: hP2X7; HEK-293 cells stably transfected with P2X7 receptor, Bz-ATP at EC80, Fluo-8 NW; potency ranges A-D
T3 sequence (Q99572 1-595): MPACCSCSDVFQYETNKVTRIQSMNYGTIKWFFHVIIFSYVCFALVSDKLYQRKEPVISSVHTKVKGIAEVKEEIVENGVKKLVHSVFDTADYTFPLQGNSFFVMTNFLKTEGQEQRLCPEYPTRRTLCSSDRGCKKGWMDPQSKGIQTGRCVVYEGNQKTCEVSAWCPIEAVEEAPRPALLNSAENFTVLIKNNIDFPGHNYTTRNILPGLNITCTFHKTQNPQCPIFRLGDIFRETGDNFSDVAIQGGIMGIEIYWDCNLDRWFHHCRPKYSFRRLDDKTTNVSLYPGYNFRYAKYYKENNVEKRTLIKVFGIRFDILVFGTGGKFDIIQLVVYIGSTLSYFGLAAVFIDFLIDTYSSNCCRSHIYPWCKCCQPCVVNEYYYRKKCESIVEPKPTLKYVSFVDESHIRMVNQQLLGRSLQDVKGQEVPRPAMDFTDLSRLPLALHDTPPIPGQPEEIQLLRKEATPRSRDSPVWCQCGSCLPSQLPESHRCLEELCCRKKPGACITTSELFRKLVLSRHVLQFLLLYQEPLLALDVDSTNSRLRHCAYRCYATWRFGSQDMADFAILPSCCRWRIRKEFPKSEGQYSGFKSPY
Method in brief: as §1

Row | IC50 (P2X7 receptor [1]) [nM] | IC50 (P2X7 receptor [2]) [nM] | IC50 (P2X7 receptor [3]) [nM] | SMILES
1 | > 10000 | > 10000 | 1000 to 10000 | CC(C)Cn1c(Cc2c(F)cccc2Cl)noc1=O [Example 178, 3-[(2-chloro-6-fluorophenyl)methyl]-4-(2-methylpropyl)-4,5-dihydro-1,2,4-oxadiazol-5-one]
2 | > 10000 | 1000 to 10000 | 1000 to 10000 | Cc1ncccc1Cc1noc(=O)n1Cc1ccc(F)cc1 [Example 216, 4-[(4-fluorophenyl)methyl]-3-[(2-methylpyridin-3-yl)methyl]-4,5-dihydro-1,2,4-oxadiazol-5-one]
3 | 1000 to 10000 | 1000 to 10000 | > 10000 | O=c1onc(CN2CCC(F)(F)CC2)n1Cc1ccc(F)cc1 [Example 221, 3-[(4,4-difluoropiperidin-1-yl)methyl]-4-[(4-fluorophenyl)methyl]-4,5-dihydro-1,2,4-oxadiazol-5-one]
4 | < 200 | < 200 | < 200 | O=c1onc(Cc2c(F)cccc2Cl)n1CC1CCC(F)CC1 (stereo not drawn) [Example 185, 3-[(2-chloro-6-fluorophenyl)methyl]-4-[(4-fluorocyclohexyl)methyl]-4,5-dihydro-1,2,4-oxadiazol-5-one]
5 | > 10000 | 1000 to 10000 | > 10000 | O=c1onc(Cc2ccccn2)n1CC1CCCCC1 [Example 110, 4-(cyclohexylmethyl)-3-(pyridin-2-ylmethyl)-4,5-dihydro-1,2,4-oxadiazol-5-one]
6 | 1000 to 10000 | 1000 to 10000 | 1000 to 10000 | CC(c1ccc(F)cc1)n1c(CC2CCCCC2)noc1=O (stereo not drawn) [Example 163, 3-(cyclohexylmethyl)-4-[1-(4-fluorophenyl)ethyl]-4,5-dihydro-1,2,4-oxadiazol-5-one]
7 | > 10000 | > 10000 | > 10000 | O=c1onc(CC2CCC(F)(F)C2)n1Cc1ccc(F)cc1 (stereo not drawn) [Example 204, 3-[(3,3-difluorocyclopentyl)methyl]-4-[(4-fluorophenyl)methyl]-4,5-dihydro-1,2,4-oxadiazol-5-one]
8 | > 10000 | 1000 to 10000 | 1000 to 10000 | CCCCn1c(Cc2c(F)cccc2Cl)noc1=O [Example 177, 4-butyl-3-[(2-chloro-6-fluorophenyl)methyl]-4,5-dihydro-1,2,4-oxadiazol-5-one]
9 | 1000 to 10000 | 1000 to 10000 | 1000 to 10000 | O=c1onc(Cc2ccccc2)n1Cc1ccc(F)cc1 [Example 108, 3-benzyl-4-[(4-fluorophenyl)methyl]-4,5-dihydro-1,2,4-oxadiazol-5-one]
10 | 200 to 1000 | 200 to 1000 | 200 to 1000 | Cc1ncsc1Cn1c(CC2CCC(F)(F)CC2)noc1=O [Example 200, 3-[(4,4-difluorocyclohexyl)methyl]-4-[(4-methyl-1,3-thiazol-5-yl)methyl]-1,2,4-oxadiazol-5(4H)-one]

Second part, the molecule before the results:

Row | SMILES | IC50 (P2X7 receptor [1]) [nM] | IC50 (P2X7 receptor [2]) [nM] | IC50 (P2X7 receptor [3]) [nM]
11 | O=c1onc(Cc2c(F)cccc2Cl)n1Cc1ccccc1 [Example 21, 4-benzyl-3-[(2-chloro-6-fluorophenyl)methyl]-4,5-dihydro-1,2,4-oxadiazol-5-one] | 1000 to 10000 | 1000 to 10000 | 200 to 1000
12 | O=c1onc(Cc2c(F)cccc2Cl)n1Cc1ncco1 [Example 32, 3-[(2-chloro-6-fluorophenyl)methyl]-4-(1,3-oxazol-2-ylmethyl)-4,5-dihydro-1,2,4-oxadiazol-5-one] | > 10000 | > 10000 | > 10000
13 | O=c1onc(Cc2c(F)cccc2Cl)n1Cc1ccccc1F [Example 56, 3-[(2-chloro-6-fluorophenyl)methyl]-4-[(2-fluorophenyl)methyl]-4,5-dihydro-1,2,4-oxadiazol-5-one] | 1000 to 10000 | 1000 to 10000 | 1000 to 10000
14 | O=c1onc(Cc2ccccc2F)n1Cc1ccc(F)cc1 [Example 75, 3-[(2-fluorophenyl)methyl]-4-[(4-fluorophenyl)methyl]-4,5-dihydro-1,2,4-oxadiazol-5-one] | 1000 to 10000 | 1000 to 10000 | 1000 to 10000
15 | CC(C)(c1c(F)cccc1Cl)c1noc(=O)n1Cc1ccc(F)cc1 [Example 77, 3-[2-(2-chloro-6-fluorophenyl)propan-2-yl]-4-[(4-fluorophenyl)methyl]-4,5-dihydro-1,2,4-oxadiazol-5-one] | > 10000 | > 10000 | > 10000
16 | Cc1ccc(Cn2c(Cc3c(F)cccc3Cl)noc2=O)cc1 [Example 67, 3-[(2-chloro-6-fluorophenyl)methyl]-4-[(4-methylphenyl)methyl]-4,5-dihydro-1,2,4-oxadiazol-5-one] | 1000 to 10000 | 1000 to 10000 | 1000 to 10000
17 | CCCOCn1c(Cc2c(F)cccc2Cl)noc1=O [Example 102, 3-[(2-chloro-6-fluorophenyl)methyl]-4-(propoxymethyl)-4,5-dihydro-1,2,4-oxadiazol-5-one] | > 10000 | 1000 to 10000 | 1000 to 10000
18 | Cc1cc(Cn2c(Cc3c(F)cccc3Cl)noc2=O)n(C)n1 [Example 46, 3-[(2-chloro-6-fluorophenyl)methyl]-4-[(1,3-dimethyl-1H-pyrazol-5-yl)methyl]-4,5-dihydro-1,2,4-oxadiazol-5-one] | > 10000 | > 10000 | > 10000
19 | O=c1onc(Cc2ccc(F)cc2)n1Cc1cccc(C(F)(F)F)c1Cl [Example 52, 4-{[2-chloro-3-(trifluoromethyl)phenyl]methyl}-3-[(4-fluorophenyl)methyl]-4,5-dihydro-1,2,4-oxadiazol-5-one] | > 10000 | > 10000 | > 10000
20 | O=c1onc(Cc2c(F)cccc2Cl)n1Cc1cnco1 [Example 40, 3-[(2-chloro-6-fluorophenyl)methyl]-4-(1,3-oxazol-5-ylmethyl)-4,5-dihydro-1,2,4-oxadiazol-5-one] | > 10000 | > 10000 | > 10000
21 | COc1ccc(Cn2c(Cc3c(F)cccc3Cl)noc2=O)cc1 [Example 68, 3-[(2-chloro-6-fluorophenyl)methyl]-4-[(4-methoxyphenyl)methyl]-4,5-dihydro-1,2,4-oxadiazol-5-one] | > 10000 | > 10000 | 1000 to 10000
22 | O=c1onc(Cc2ccc(F)cc2)n1Cc1cc(F)ccc1Br [Example 5, 4-[(2-bromo-5-fluorophenyl)methyl]-3-[(4-fluorophenyl)methyl]-4,5-dihydro-1,2,4-oxadiazol-5-one] | > 10000 | > 10000 | 1000 to 10000
